Assay results from patent EP0255343A2, “L-aspartylfenchylamino alcohol derivatives” (priority 1986, dated 1988).
Residues, ends and D or L forms follow the SMILES beside them.

Assays:
[1] = Sweetness threshold values determined by a limit method by a panel of 5 skilled flavorists; format: in vivo; details: for Taste intensity Threshold Values (%): dissolved in water, limit method, panel of 5 skilled flavorists; for Degree of Sweetness (time): relative to sucrose = 1
[2] = at 80°C and at a pH of 4; cited from earlier work

Compound | Taste intensity Threshold Values (%) [1] | Degree of Sweetness (time) [1] | stability [2]
3-N-(L-aspartyl)amino-4-fenchyl-2-butanol [Compound B] | 0.0012% | 500 time | –
COC(=O)C(NC(=O)[C@@H](N)CC(=O)O)C(=O)OC1C2(C)CCC(C2)C1(C)C (mixture of isomers) [L-aspartyl-DL-aminomalonic acid methyl fenchyl diester] | – | – | lower than APM
3-N-(L-aspartyl)amino-1-fenchyl-2-butanol [Compound A] | 0.001% | 600 time | –
OC[C@H]1O[C@@](CO)(O[C@H]2O[C@H](CO)[C@@H](O)[C@H](O)[C@H]2O)[C@@H](O)[C@@H]1O [Sucrose, sucrose] | 0.6% | – | –
COC(=O)[C@H](Cc1ccccc1)NC(=O)[C@@H](N)CC(=O)O [APM, L-aspartyl-L-phenylalanine methyl ester] (H-Asp-Phe-OMe) | 0.004% | 150 time | –
